Laboratory results taken from publication PMC5393024, “Discovery and characterization of natural tropolones as inhibitors of the antibacterial target CapF from Staphylococcus aureus” (Scientific Reports, 2015).

Columns and labels:
[1] = target: T1, CapF lacking the His6-tag (Staphylococcus aureus, UniProt A0A0H3JP37); experiment: ITC binding to CapF lacking the His6-tag
T1 sequence (A0A0H3JP37 1-369): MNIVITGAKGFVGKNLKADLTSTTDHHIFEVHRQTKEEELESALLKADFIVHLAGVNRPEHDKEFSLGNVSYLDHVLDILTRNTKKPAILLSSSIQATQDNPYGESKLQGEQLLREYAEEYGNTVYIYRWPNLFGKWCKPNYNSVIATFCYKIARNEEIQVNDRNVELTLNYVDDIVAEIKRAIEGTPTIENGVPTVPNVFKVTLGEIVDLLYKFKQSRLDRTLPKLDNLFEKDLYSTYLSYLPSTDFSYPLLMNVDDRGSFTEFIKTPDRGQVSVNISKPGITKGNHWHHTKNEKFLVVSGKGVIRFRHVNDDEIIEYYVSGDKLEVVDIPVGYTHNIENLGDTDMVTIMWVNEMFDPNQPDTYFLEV
Description: A control experiment with CapF lacking the His6-tag was carried to rule out the possibility of spurious effects caused by the affinity tag (Supplementary Information Figure S4).
Figure S4. Binding of 3-isopropyl-tropolone to CapF lacking the His6-tag. Titration of CapF (220 µM) with 2.2 mM inhibitor in a buffer composed of 10 mM HEPES (pH 7.5), 150 mM NaCl, and 5% DMSO at 25 °C. A construct of full-length CapF bearing a cleavable His6-tag was prepared and purified exactly as that of CapF Δ57-70 (see Methods section for the detailed protocol of CapFΔ57-70), except that (i) the dialysis buffer after to reconstitute the enzyme with Zn2+ contained 150 mM NaCl (instead of 50 mM) and 12.5 µM ZnCl2 (instead of 10 µM), and (ii) the buffer of the size exclusion chromatography step contained 10 mM HEPES (instead of 50 mM) and 150 mM NaCl (instead of 50 mM). The values of the thermodynamic parameters […]
kcal mol-1, and n = 0.92 ± 0.1.
(§1) (1 picture or pasted object on this page, not shown here)

CapF [2] = experiment: SPR binding to immobilized CapF; set-up: species or system Staphylococcus aureus; settings: 25 °C
Excerpt: To identify small-molecule inhibitors of CapF we employed fragment-based methodologies (Supplementary Information Figure S1)[13][14]. A fragment library consisting of 1,994 compounds was obtained from the Drug Discovery Initiative program (The University of Tokyo, see the Methods section for an brief description of the features of this library). This library was employed to screen for potential inhibitors of CapF using the technique of surface plasmon resonance (SPR). This screening methodology identified compounds with the ability to bind to the target protein but not by their inhibitory potency. Inhibition was only assessed with the selected hit compound using two separate enzymatic assays (see below). To maximize the sensitivity of the SPR signal the microtiter-based assay mode was employed. The values of the parameters CV (1.0%) and Z-factor (0.93) were monitored throughout the screen. […]
A total of 15 compounds selected from the library screening were next evaluated with SPR at three different concentrations (100 μM, 10 μM, and 1 μM) to detect compounds giving false positive signals, which are generally known as nonspecific and promiscuous binders. […] Lastly, we determined the binding affinity of these five compounds for CapF with SPR. […]

CapF [3] = experiment: NADPH consumption assay (absorbance at 340 nm); format: biochemical, Staphylococcus aureus; settings: 0.02 μM CapF, 1.0 μM CapE, 125 μM UDP-D-GlcNAc, 250 μM NADPH, 37 °C
Description: A second assay monitoring the consumption of NADPH corroborates the inhibitory effect of 3-isopropenyl-tropolone (Fig. 2c). This assay is sensitive to the NADPH consumed by the SDR domain during the second reaction catalyzed by CapF (reduction step). […] Nevertheless, additional experiments were required to corroborate that idea (see below).
The enzymatic performance of CapF was evaluated by examining the consumption of NADPH spectrophotometrically, or by monitoring the disappearance of substrate and the formation of product by HPLC[9][12]. First, the time-dependent consumption of NADPH (monitored from a decrease of adsorption at 340 nm) was carried out in 384-well plates at a final volume of 50 μL. The solution contained 1.0 μM CapE, 0.02 μM CapF, 125 μM UDP-D-GlcNAc (substrate), 250 μM NADPH and fragment compounds at various concentrations in HBS supplemented with 0.005% (v/v) Tween-20 and 5% (v/v) DMSO. Each reaction mixture was incubated at 37 °C and the absorption at 340 nm was measured with a plate reader (PHERAstar, BMG Labtech, Durham, NC).
Figure S7. (a) Structure of compounds employed. (b-d) Time course of NADPH consumption by CapF in the presence of (b) tropolone, (c) 4-isopropyl-tropolone, and (d) 2-Cl-tropone. Increasing the concentration of compounds decreases the rate of consumption of NADPH. (e-g) Inhibition after two hours for (e) tropolone, (f) 4-isopropyl-tropolone, and (g) 2-Cl-tropone. Concentration of CapE and CapF was 1.0 µM and 0.02 µM, respectively. Concentration of NADPH and UDP-D-GlcNAc was 250 µM and 125 µM, respectively. The change of absorbance was calculated with respect to a control assay in the absence of CapF.
as §1

## C=C(C)c1ccccc(=O)c1O [3-isopropenyl-tropolone]
[1]
  Kd: 13 ± 1 µM
[1]; ITC, 25 °C
  -TΔS: -3.0 ± 0.4 kcal/mol
  n: 0.92 ± 0.1
  ΔH: -3.6 ± 0.3 kcal/mol
CapF [2]
  binding affinity for CapF with SPR: sub-millimolar
CapF [3]
  inhibition of NADPH consumption: rate of consumption of NADPH slowed down as the concentration of inhibitor increases
CapF [3]; listed as 3-isopropylen-tropolone
  inhibition of NADPH consumption: inhibited the consumption of NADPH in a concentration-dependent basis
